Non-standard residues stand in square brackets, D forms with d. Residues, ends and D or L forms follow the SMILES beside them. *: point of attachment. Dolaproine = CO[C@@H]([C@@H]1CCCN1)[C@@H](C)C(=O)O; Dil = CC[C@H](C)[C@H](NC)[C@@H](CC(=O)O)OC; X1 = C[C@@H](N*)[C@@H](O)c1ccccc1; NMeV = CN[C@H](C(=O)O)C(C)C
Key:
[1] = tested on: SKBR3 (Her2+) cells; test: In vitro cytotoxicity assay (CCK8 cell viability), SKBR3 (Her2+) cells; assay type: cell-based
Description: (§1) The ability of various antibody-drug conjugates and naked payloads to kill antigen-expressing tumor cells in vitro was assessed.
(§2) SKBR3 (Her2+) cells were seeded in 96 well plates at 8000 cells per well in complete growth media and grown overnight. For cell viability curves, serially diluted conjugates or naked payloads were added to the cells at final concentrations ranging from 100 nM to 5 pM and incubated for 3 days. NCI H1975 (Her2−) cells were run as negative controls using similar conditions. To measure viability, cells were incubated with CCK8 (Dojindo) for the final 2 hours and the absorbance at 450 nm (OD450) was determined on a Victor (Perkin Elmer). Background OD450 levels determined from digitonin (40 nM) treated cells were subtracted from all wells and viability is expressed as a percentage of the untreated controls. IC50 values were determined from a four-parameter logistic equation over a 10-point response curve (GraphPad Prism). […] The interchain disulfide conjugates had similar IC50 values as the transglutaminase site-specific selenocystamine conjugates. […] For comparison, the mc-vc-PAB-MMAE interchain disulfide conjugated molecules were produced according to Doronina, S. O. et al., Nat. Biotechnol., 2003, 21, 778.

[2] = tested on: NCI H1975 (Her2−) cells; test: In vitro cytotoxicity assay (CCK8 cell viability), NCI H1975 (Her2−) negative control cells; assay type: cell-based; conditions: 3 days incubation
Description: as §1, §2

For `CC[C@H](C)[C@@H]([C@@H](CC(=O)N1CCC[C@H]1[C@H](OC)[C@@H](C)C(=O)N[C@H](C)[C@@H](O)c1ccccc1)OC)N(C)C(=O)[C@@H](NC(=O)[C@@H](NC)C(C)C)C(C)C` [MMAE, monomethyl auristatin E] (H-[NMeV]V[Dil][Dolaproine]-X1), the IC50 ([1]; Homo sapiens, SK-BR-3, 72 h) was 0.191 nM, the “% Kill” value ([1]; SK-BR-3 cells, 3 days incubation, CCK8 viability, concentrations 100 nM to 5 pM) was 93.6% and the “% Kill” value ([2]; concentrations 100 nM to 5 pM) was 100%. The IC50 ([2]; Homo sapiens, 72 h, IC50 corrected for payload equivalents) was 0.405 nM.
